This is an account of results in patent US8349851B2, “JAK kinase modulating compounds and methods of use thereof” (Ambit Biosciences Corp., priority 2009, dated 2013).

pIC50, pKd: −log10 of the molar value. Read-outs that look alike come from different tables or passages of the source.

A word on the pIC50: it is the negative decadic logarithm of the IC50, by convention in mol/L.

In experiment [1] the target is T1, AuroraB (Homo sapiens, UniProt Q96GD4).
T1 construct: made in house
The experiment can be described thus: Competition binding assay, Aurora B. From the text:
Methods for determining binding constant against Aurora B kinase are known to one of skill in the art. Exemplary methods are described in U.S. provisional application No. 61/294,413, and Fabian et al., Nature Biotechnology 2005, 23,329-336.
Competition binding assays used herein were developed, validated and performed as described in Fabian et al., Nature Biotechnology 2005, 23,329-336. Kinases were produced as fusions to T7 phage (See, Fabian et al. or WO04/015142) or alternatively, the kinases were expressed in HEK-293 cells and subsequently tagged with DNA for PCR detection (See, WO08/005310). For the binding assays, streptavidin-coated magnetic beads were treated with biotinylated affinity ligands for 30 min at rt to generate affinity resins. The liganded beads were blocked with excess biotin and washed with blocking buffer (SeaBlock (Pierce), 1% BSA, 0.05% Tween 20, 1 mM DTT) to remove unbound ligand and to reduce non-specific binding. […] Test compounds were prepared as 100× stocks in DMSO and rapidly diluted into the aqueous environment. DMSO was added to control assays lacking a test compound. Primary screen interactions were performed in polypropylene 384-well plates in a final volume of 34 μL, while Kd determinations were performed in polystyrene 96-well plates in a final volume of 135 μL. […] The kinase concentration in the eluates was measured by quantitative PCR. Each kinase was tested individually against each compound. Kds were determined using eleven serial threefold dilutions. A selectivity score, which is a quantitative measure of selectivity of a compound against a panel of enzymes, may be calculated for a compound by dividing the number of enzymes for which a compound meets a set criteria, (for example, a binding constant of 100 nM or less), by the total number of enzymes tested.

In experiment [2] the test system is csTF-1 cells (GM-CSFR/JAK2/STAT5 pathway). Nature of the experiment: csTF-1 cell-based reporter assay. Details: species or system human. Particulars: GM-CSF at 2 ng/mL, 4 hours, read-out: Cell Assay: CS0017: CS TF-1 reporter assay: IC50. In a few lines: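 GM-CSF-dependent human csTF-1 cells with STAT5-driven beta-lactamase reporter (irf1 element), 2×10^5 cells/well, given serial compound dilutions plus 2 ng/mL GM-CSF in 0.5% DMSO for 4 hours at 30° C. Substrate added 2 h at room temperature; blue (460 nm)/green (530 nm) fluorescence read at 409 nm excitation.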

Experiment [3] deals with T2, JAK3 (Homo sapiens, UniProt P52333).
T2 construct: made in house
T2 sequence (P52333 822-1111 limits assumed): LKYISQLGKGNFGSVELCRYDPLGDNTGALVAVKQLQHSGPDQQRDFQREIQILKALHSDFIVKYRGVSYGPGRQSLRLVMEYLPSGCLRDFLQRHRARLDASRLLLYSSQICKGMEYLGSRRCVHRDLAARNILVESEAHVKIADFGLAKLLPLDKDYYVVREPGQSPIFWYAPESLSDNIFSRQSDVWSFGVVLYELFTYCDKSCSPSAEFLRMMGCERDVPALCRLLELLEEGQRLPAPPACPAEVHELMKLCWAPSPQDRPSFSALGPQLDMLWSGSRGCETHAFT
Nature of the experiment: Competition binding assay, JAK3. The note with it: read-out: Binding Assay: JAK3 (active_KD, ENZ). The gist of the method: (§1)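 JAK2 and JAK3 were each tested individually as T7 phage fusions or HEK-293-expressed DNA-tagged kinases, competing with compound for bead-immobilized biotinylated ligand. Eluted kinase was measured by quantitative PCR. Kd values came from eleven serial threefold dilutions.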

Experiment [4] addresses T3, JAK2 (Homo sapiens, UniProt O60674).
T3 construct: made in house
The experiment can be described thus: Competition binding assay, JAK2. The note with it: read-out: Binding Assay: JAK2 (active_KD). In a few lines:
as §1

The test system of experiment [5] is TEL-JAK cells. The experiment can be described thus: In vivo efficacy study in the mouse TELJAK model (survival). Particulars: CB17 SCID mice, BID for two weeks; Ambit Internal Compound 50 mg/kg BID, TGEN101348 100 mg/kg BID. The method, then: In Vivo Efficacy Study in the Mouse TELJAK Mouse Model
This study was conducted to determine the effect of a selected compound of Formula I on tumor progression and survival. CB17 SCID mice (Harlan Laboratories) were inoculated with 5e5 TEL-JAK cells via tail vein on day 0. Cells were allowed to establish in the animal, and on day 3, dosing was initiated as follows: Vehicle (Pharmatek #6) administered 50 uL at BID to a first group, Ambit Internal Compound prepared in Pharmatek #6 and administered at 50 mg/kg BID to a second group and TGEN101348 prepared in Pharmatek #6 to a third group at 100 mg/kg BID. Each treatment group (16 animals per group) received a twice daily dosing for a two week period. An untreated group of 10 animals also served as control.
A second study was conducted using the same protocol, with the same controls and the following treatment groups: Ambit Internal Compound A prepared in Pharmatek #6 administered at 60 mg/kg BID and a selected compound of Formula I prepared in Pharmatek #6 at 60 mg/kg BID.

The subject of experiment [6] is HEL 92.1.7 cells. Nature of the experiment: In vivo efficacy study in the mouse HELV617F liquid tumor model (survival). The note with it: CB17 SCID mice, PO BID, 21 day dosing; Ambit Internal Compound 50 or 60 mg/kg, compound of Formula I 60 mg/kg, TGEN101348 120 mg/kg. The method, then:
In Vivo Efficacy Study in the Mouse HELV617F Liquid Tumor Mouse Model
This study was conducted to determine the effect of a selected compound of Formula I on tumor progression and survival. CB 17 SCID mice (Charles River Labs) were pretreated with cyclophosphamide IP QD at 150 mg/kg for two consecutive days before being injected with cells. On Day 0, 75 mice were inoculated IV with 5e6 HEL 92.1.7 cells suspended in sterile saline. Animals were weighed on Day 8, and assigned to groups with similar mean body weights and similar standard deviations from the mean. Animals were dosed on Day 8 for a 21 day dosing period. Treatment groups were as follows (10 animals per group): First group was administered vehicle (Pharmatek #6), PO, BID; a second group was administered Ambit Internal Compound A prepared in Pharmatek #6, at 50 mg/kg PO, BID; and a third group was administered TGEN101348 prepared in Pharmatek #6, at 120 mg/kg PO, BID. An untreated group of 10 animals also served as control.
Another study was conducted using the same protocol, with the same controls and the following treatment groups: Ambit Internal Compound A prepared in Pharmatek #6 administered at 60 mg/kg BID and a selected compound of Formula I prepared in Pharmatek #6 at 60 mg/kg BID.

T1 sequence (Q96GD4 whole entry): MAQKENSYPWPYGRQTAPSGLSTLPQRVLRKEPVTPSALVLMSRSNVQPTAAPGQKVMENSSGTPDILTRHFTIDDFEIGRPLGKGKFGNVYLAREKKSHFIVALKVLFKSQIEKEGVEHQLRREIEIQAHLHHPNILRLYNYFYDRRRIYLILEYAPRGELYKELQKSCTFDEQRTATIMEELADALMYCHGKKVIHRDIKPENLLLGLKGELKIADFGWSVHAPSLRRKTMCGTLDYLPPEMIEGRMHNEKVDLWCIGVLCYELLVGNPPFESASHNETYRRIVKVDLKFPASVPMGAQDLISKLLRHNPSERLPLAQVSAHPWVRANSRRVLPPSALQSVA
T3 sequence (O60674 849-1124 limits assumed): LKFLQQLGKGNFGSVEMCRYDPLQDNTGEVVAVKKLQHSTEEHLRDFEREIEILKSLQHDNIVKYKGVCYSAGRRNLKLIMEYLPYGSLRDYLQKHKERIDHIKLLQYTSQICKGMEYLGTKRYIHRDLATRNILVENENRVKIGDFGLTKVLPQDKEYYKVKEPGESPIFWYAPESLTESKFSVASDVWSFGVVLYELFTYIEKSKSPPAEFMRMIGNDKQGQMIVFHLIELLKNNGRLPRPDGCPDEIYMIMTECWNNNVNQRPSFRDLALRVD

For `Cc1ccc2c(Nc3cc(C)[nH]n3)nc(C(=O)c3ccc(F)cc3)nc2c1` [Example 24, (4-fluorophenyl)(7-methyl-4-(5-methyl-1H-pyrazol-3-ylamino)quinazolin-2-yl)methanone], the pKd in experiment [1] is < 6.70; in experiment [3], 7.00 to 8.00; in experiment [4], ≥ 9.00. The pIC50 in experiment [2] (Homo sapiens) is ≥ 7.00.

For the compound `Cc1ccc2c(Nc3cc(C)[nH]n3)nc(C(F)(F)c3ccc(F)cc3)nc2c1` [Example 26, 2-(difluoro(4-fluorophenyl)methyl)-7-methyl-N-(5-methyl-1H-pyrazol-3-yl)quinazolin-4-amine], the results for the pKd in experiment [1], in experiment [3] and in experiment [4] were < 6.70, ≥ 8.00 and ≥ 9.00, respectively. In experiment [2] (Homo sapiens), the pIC50 was ≥ 7.00.

For the compound `COc1ccc2c(Nc3cc[nH]n3)nc(C(=O)c3ccc(F)cc3)nc2c1` [Example 28, (4-(1H-pyrazol-3-ylamino)-7-methoxyquinazolin-2-yl)(4-fluorophenyl)methanone], the pKd in experiment [1] is < 6.70; in experiment [3], < 7.00; in experiment [4], 8.00 to 9.00. The negative logarithm of the IC50 (pIC50) in experiment [2] (Homo sapiens) was 6.30 to 7.00.

Take `COc1ccc2c(Nc3cc(C)[nH]n3)nc(C(=O)c3ccc(F)cc3)nc2c1` [Example 30, (4-fluorophenyl)(7-methoxy-4-(5-methyl-1H-pyrazol-3-ylamino)quinazolin-2-yl)methanone]: the pKd in experiment [1] is < 6.70; in experiment [3], 7.00 to 8.00; in experiment [4], 8.00 to 9.00. Also, in experiment [2] (Homo sapiens), the negative logarithm of the IC50 (pIC50) is ≥ 7.00.

On to `COc1ccc2c(Nc3cc(C)[nH]n3)nc(C(F)(F)c3ccc(F)cc3)nc2c1` [Example 32, 2-(difluoro(4-fluorophenyl)methyl)-7-methoxy-N-(5-methyl-1H-pyrazol-3-yl)quinazolin-4-amine], for which the pKd in experiment [1] is < 6.70; in experiment [3], 7.00 to 8.00; in experiment [4] it was ≥ 9.00. In addition, the pIC50 in experiment [2] (Homo sapiens) was ≥ 7.00.

Consider `COc1ccc2c(Nc3cc[nH]n3)nc(C(F)(F)c3ccc(F)cc3)nc2c1` [Example 33, 2-(difluoro(4-fluorophenyl)methyl)-7-methoxy-N-(1H-pyrazol-3-yl)quinazolin-4-amine], for which the pKd in experiment [1] was 6.70 to 7.30; in experiment [3] it was < 7.00; in experiment [4] it was 8.00 to 9.00. Besides, in experiment [2] (Homo sapiens), the pIC50 was 6.30 to 7.00.

For `Cc1cc(Nc2nc(C(F)(F)c3ccc(F)cc3)nc3c(F)cccc23)n[nH]1` [Example 34, 2-(difluoro(4-fluorophenyl)methyl)-8-fluoro-N-(5-methyl-1H-pyrazol-3-yl)quinazolin-4-amine], the results for the pKd in experiment [1], in experiment [3] and in experiment [4] were < 6.70, 7.00 to 8.00 and ≥ 9.00, respectively. Besides, the pIC50 in experiment [2] (Homo sapiens) is ≥ 7.00.

For the compound `COc1cccc2c(Nc3cc[nH]n3)nc(C(=O)c3ccc(F)cc3)nc12` [Example 35, (4-(1H-pyrazol-3-ylamino)-8-methoxyquinazolin-2-yl)(4-fluorophenyl)methanone], the values for the pKd in experiment [1], in experiment [3] and in experiment [4] were 6.70 to 7.30, < 7.00 and < 8.00, respectively. Also, the pIC50 in experiment [2] (Homo sapiens) is < 6.30.

As for `Cc1cc(Nc2nc(C(=O)c3ccc(F)cc3)nc3cc(O)ccc23)n[nH]1` [Example 37, (4-fluorophenyl)(7-hydroxy-4-(5-methyl-1H-pyrazol-3-ylamino)quinazolin-2-yl)methanone], the results for the pKd in experiment [1], in experiment [3] and in experiment [4] were < 6.70, 7.00 to 8.00 and ≥ 9.00, respectively. Also, the pIC50 in experiment [2] (Homo sapiens) is ≥ 7.00.

On to `Cc1cc(Nc2nc(C(O)c3ccc(F)cc3)nc3cc(OC4CCNCC4)ccc23)n[nH]1` (stereo not shown) [Example 41, (4-fluorophenyl)(4-(5-methyl-1H-pyrazol-3-ylamino)-7-(piperidin-4-yloxy)quinazolin-2-yl)methanol], for which the pKd was < 6.70 in experiment [1], ≥ 8.00 in experiment [3] and ≥ 9.00 in experiment [4]. Further, in experiment [2] (Homo sapiens), the negative logarithm of the IC50 (pIC50) was 6.30 to 7.00.

In the case of `Cc1cc(Nc2nc(C(F)(F)c3ccc(F)cc3)nc3cc(CS(C)(=O)=O)ccc23)n[nH]1` [Example 50, 2-(difluoro(4-fluorophenyl)methyl)-N-(5-methyl-1H-pyrazol-3-yl)-7-(methylsulfonylmethyl)quinazolin-4-amine], the values for the pKd in experiment [1], in experiment [3] and in experiment [4] were < 6.70, ≥ 8.00 and ≥ 9.00, respectively. Moreover, the pIC50 in experiment [2] (Homo sapiens) is ≥ 7.00.

Turning to `CCOCc1ccc2c(Nc3cc(C)[nH]n3)nc(C(F)(F)c3ccc(F)cc3)nc2c1` [Example 51, 2-(Difluoro(4-fluorophenyl)methyl)-7-(ethoxymethyl)-N-(5-methyl-1H-pyrazol-3-yl)quinazolin-4-amine], the pKd in experiment [1] is 6.70 to 7.30; in experiment [3] it was ≥ 8.00; in experiment [4], ≥ 9.00. In experiment [2] (Homo sapiens), the pIC50 was ≥ 7.00.

As for `Cc1cnc(Nc2ccc(OCCN3CCCC3)cc2)nc1Nc1cccc(S(=O)(=O)NC(C)(C)C)c1` [TGEN101348], the “increased life span (ILS)” value in experiment [5] is recorded as 30%; in experiment [6], “approximately 5%”.

For `Cc1cc(Nc2nc(C(O)(c3ccc(F)cc3)c3ccc(F)cc3)nc3ccccc23)n[nH]1` [bis-(4-fluoro-phenyl)-[4-(5-methyl-1H-pyrazol-3-ylamino)-quinazolin-2-yl]-methanol], the pKd is < 6.70 in experiment [1], < 7.00 in experiment [3] and < 8.00 in experiment [4]. Besides, the pIC50 in experiment [2] (Homo sapiens) was < 6.30.

Regarding “(4-(1H-pyrazol-3-ylamino)quinazolin-2-yl)bis(4-fluorophenyl)methanol [Example 48]”, the pKd in experiment [1] was < 6.70; in experiment [3] it was < 7.00; in experiment [4] it was < 8.00. Moreover, the pIC50 in experiment [2] is < 6.30.
